# Source: PMC12135066, “Design and Preclinical Evaluation of Novel uPAR-Targeting Radiopeptides Modified with an Albumin-Binding Entity” (Molecular Pharmaceutics, 2025)
# Tested on: mouse serum albumin (MSA)
# Assay: Albumin-binding properties in mouse blood plasma (ultrafiltration assay)
# Conditions: for Relative albumin-binding affinity, mouse blood plasma: ultrafiltration (Amicon, 10 kDa), mouse blood plasma dilutions in PBS pH 7.4, [MSA]-to-[radiopeptide] 0.01–12500, 0.006 nmol, 37 °C 30 min, γ-counter, inverse ratio of B50, [177Lu]Lu-uPAR-01 set as 1.00, average curve of 3 experiments
# Protocol: The relative albumin-binding affinities of the radiopeptides in mouse and human blood plasma were determined using an ultrafiltration assay with Amicon centrifugal filters (cutoff of 10 kDa; Merck Millipore), as previously reported (Supporting Information). A fixed amount of the respective radiopeptide (15 μL, ∼300 kBq, 0.006 nmol) was added to a defined volume (150 μL) of mouse and human blood plasma dilutions to obtain [mouse serum albumin (MSA)]-to-[radiopeptide] and [human serum albumin (HSA)]-to-[radiopeptide] molar concentration ratios of 0.01–12,500 and 0.01–20,000, respectively. The data were analyzed using a semilogarithmic Hill plot with the maximum binding set as 100% (GraphPad Prism software, version 8.3.1).
# Determination of the Albumin-Binding Properties
# Purpose: The radiopeptides were investigated with regard to their albumin-binding capabilities in vitro
# as a measure to predict blood retention in vivo.
# Methods: The relative albumin-binding affinity of the radiopeptides in mouse blood plasma (Rockland
# Immunochemicals, Inc., U.S.A.) and human blood plasma (Stiftung Blutspende SRK Aargau-
# Solothurn, Switzerland) were determined using an ultrafiltration method. The amount of mouse serum
# albumin (MSA) and human serum albumin (HSA) in mouse and human blood plasma was defined as
# 550 μM and 800 μM, respectively, based on measurements using a dry chemistry analyzer (DRI-CHEM
# 4000i, FUJIFILM, Japan). A fixed amount of radiopeptide (50 MBq/nmol, ~300 kBq, 15 μL, 0.006
# nmol) was added to a defined volume (150 μL) of mouse and human blood plasma and various dilutions
# thereof in PBS pH 7.4, resulting in defined [MSA]-to-[radiopeptide] or [HSA]-to-[radiopeptide] molar
# concentration ratios ranging from 0.01 ‒12500 and 0.01‒20000, respectively, followed by incubation of
# the samples at 37 °C for 30 min. Ice-cold PBS (150 µL, pH 7.4) was added before loading the blood
# plasma samples on Amicon centrifugal filters (cut -off of 10 kDa; Merck Millipore) followed by
# centrifugation (14000 rcf, 30 min, 4 °C) to allow the separation of the plasma protein -bound from the
# plasma-unbound (free) fractions of each sample. The inserts of the filter devices were inverted and centrifuged at 200 rcf for 3 min to recover the protein -bound radiopeptide. The activity in the filtrate
# and filter unit was measured in a γ-counter (1480 Wizard, PerkinElmer) and the counts were combined
# assuming that the fraction retained in the filter membrane was not bound to proteins. The protein -bound
# fraction was expressed as percentage of the whole activity (i.e. plasma protein -bound activity, activity
# measured in the filtrate and activity measured in the filter (set as 100%) ). The data were analyzed using
# a semi-logarithmic plot assuming a maximum binding of 100%. The Hill equation was fitted to the data
# points and the half -maximum binding ( B50) based on the average curve obtained from three independent
# experiments (GraphPad Prism software, version 8.3 .1). The relative albumin-binding affinit ies of the
# reference compound, whose relative binding affinity was set as 1.0. The results were presented as the
# B50 value obtained from the average curve from 3 independent experiments.
"Relative albumin-binding affinity, mouse blood plasma","fold lower albumin-binding affinity than [177Lu]Lu-uPAR-01 (mouse blood plasma, ultrafiltration) [fold]",SMILES
0.02,,"CC(C)C[C@H](NC(=O)[C@H](Cc1ccc(O)cc1)NC(=O)[C@@H](CCCNC(=N)N)NC(=O)[C@@H](CO)NC(=O)[C@H](Cc1ccccc1)NC(=O)[C@H](CC1CCCCC1)NC(=O)[C@H](CC(=O)O)NC(=O)CN1CCN(CC(=O)O)CCN(CC(=O)O)CCN(CC(=O)O)CC1)C(=O)N[C@@H](Cc1c[nH]c2ccccc12)C(=O)N[C@@H](CO)C(N)=O [[^177Lu]Lu-DOTA-AE105, metal not drawn, reference compound]"
1.00,,"CC(C)C[C@H](NC(=O)[C@H](Cc1ccc(O)cc1)NC(=O)[C@@H](CCCNC(=N)N)NC(=O)[C@@H](CO)NC(=O)[C@H](Cc1ccccc1)NC(=O)[C@H](CC1CCCCC1)NC(=O)[C@H](CC(=O)O)NC(=O)[C@H](CCCCNC(=O)CCCc1ccc(I)cc1)NC(=O)CN1CCN(CC(=O)O)CCN(CC(=O)O)CCN(CC(=O)O)CC1)C(=O)N[C@@H](Cc1c[nH]c2ccccc12)C(=O)N[C@@H](CO)C(N)=O [[^177Lu]Lu-uPAR-01, metal not drawn]"
1.08,,"CC(C)C[C@H](NC(=O)[C@H](Cc1ccc(O)cc1)NC(=O)[C@@H](CCCNC(=N)N)NC(=O)[C@@H](CO)NC(=O)[C@H](Cc1ccccc1)NC(=O)[C@H](CC1CCCCC1)NC(=O)[C@H](CC(=O)O)NC(=O)[C@H](CCCCNC(=O)CCCc1ccc(I)cc1)NC(=O)[C@@H](N)CCCCNC(=O)CN1CCN(CC(=O)O)CCN(CC(=O)O)CCN(CC(=O)O)CC1)C(=O)N[C@@H](Cc1c[nH]c2ccccc12)C(=O)N[C@@H](CO)C(N)=O [[^177Lu]Lu-uPAR-04, metal not drawn]"
0.61,1.6,"CC(C)C[C@H](NC(=O)[C@H](Cc1ccc(O)cc1)NC(=O)[C@@H](CCCNC(=N)N)NC(=O)[C@@H](CO)NC(=O)[C@H](Cc1ccccc1)NC(=O)[C@H](CC1CCCCC1)NC(=O)[C@H](CC(=O)O)NC(=O)CCOCCOCCOCCOCCNC(=O)[C@H](CCCCNC(=O)CCCc1ccc(I)cc1)NC(=O)CN1CCN(CC(=O)O)CCN(CC(=O)O)CCN(CC(=O)O)CC1)C(=O)N[C@@H](Cc1c[nH]c2ccccc12)C(=O)N[C@@H](CO)C(N)=O [[^177Lu]Lu-uPAR-05, metal not drawn]"
